Assays:
[1] = system: mitochondrial fatty acid oxidation using palmitoyl CoA as substrate; test: Palmitoyl CoA oxidation in isolated rat heart mitochondria; type: biochemical; details: 15 min at 30° C.
Description: (§1) Rat heart mitochodria were isolated by the method of Nedergard and Cannon (Methods in Enzymol. 55, 3, 1979).
(§2) Palmitoyl CoA oxidation—The Palmitoyl CoA oxidation was carried out in a total volume of 100 microliters containing the following agents: 110 mM KCl, 33 mM Tris buffer at pH 8, 2 mM KPi, 2 mM MgCl2, 0.1 mM EDTA, 14.7 microM defatted BSA, 0.5 mM malic acid, 13 mM carnitine, 1 mM ADP, 52 micrograms of mitochondrial protein, and 16 microM 1-C14 palmitoyl CoA (Sp. Activity 60 mCi/mmole; 20 microCi/ml, using 5 microliters per assay). The compounds of this invention were added in a DMSO solution at the following concentrations: 100 microM, 30 microM, and 3 microM. In each assay, a DMSO control was used. After 15 min at 30° C., the enzymatic reaction was centrifuged (20,000 g for 1 min), and 70 microliters of the supernatant was added to an activated reverse phase silicic acid column (approximately 0.5 ml of silicic acid). The column was eluted with 2 ml of water, and 0.5 ml of the eluent was used for scintillation counting to determine the amount of C^14 trapped as C^14 bicarbonate ion. The data are presented as % activity of control.

[2] = Metabolic stability in human liver S-9 fractions; type: in vitro ADME; details: for Liver S-9 stability factor: % parent remaining after 30 min in human liver S-9 divided by average % of ranolazine remaining (57%)
Description: Metabolic Stability: As a measure of metabolic stability the compounds of this invention were incubated with human liver S-9 microsomal fractions. After, 30 minutes at 37 C, the amount of parent drug remaining was determined using LC-mass spec. The response factors for each compound was determined by establishing a standard curve and using an internal standard during the analysis of the samples. An average of five experiments for percentage of ranolazine remaining at the 30 minute time point is 57%. The compounds of this invention were assayed as described in the protocol below and the percentage of parent remaining was divided by the average % of ranolazine remaining (57%) affording a metabolic stability factor. A compound with a stability number greater than 1.2 has a better stability than ranolazine in the liver S-9 assay. A compound with a stability number between 1.2 and 0.8 has an equivalent stability in the liver S-9 assay.
The purpose of this experiment is to compare the percentages remaining for compounds of this invention with the percentage remaining for ranolazine after 30 minutes of incubation with human liver S9 fractions.
The following reagents were used; Potassium phosphate, 0.5M […]. (incubation buffer), kept at room temperature; 0.05M MgCl2 kept at 4° C.; β-Nicotinamide adenine dinucleotide phosphate, tetrasodium salt, reduced form (NADPH), 0.02M solution in water (˜16.6 mg/mL) from Sigma Lot # 79H7044 prepared on day of use. 1 mM of ranolazine or Compounds 7, 9, and 10-13 in ACN further diluted to obtain 100 μM in 10% ACN; Human S9 stock: 20 mg/mL from Gentest Lot 3.
Incubation mixtures were prepared as follows:
Combine all components with incubation buffer and re-pipette 200 μL/tube+25 μL of the compound being tested along with 25 μL of S-9.
After 5 min of pre-incubation at 37° C., at 0 and 30 min after starting the reaction, a 50 μl aliquot of the incubation mixture was removed and added to 100 μL of 9:1 acetonitrile:methanol containing the internal standard.
The mixture was centrifuged and a 100 μL aliquot of the supernatant was diluted in 1 mL of solvent C (0.1% Formic Acid in water). Then samples were analyzed for change between the ratio of compound to internal standard at time zero and 30 minutes by LC/MS (injected 10 μL).
Samples were analyzed for the starting compounds and potential metabolite/s by LC/MS using an internal standard on a Micromass platform mass spec with a Keystone Inc. BDS ODS-C18 column with a flow rate of 0.25 ml/min.

[3] = system: mitochondrial fatty acid oxidation using palmitoyl carnitine as substrate; test: Palmitoyl carnitine oxidation in isolated rat heart mitochondria; type: biochemical; details: 15 min at 30° C.
Description: as §1
as §2, with “Carnitine Oxidation—The” for “CoA oxidation—The”, “carnitine” for “CoA”, “0.1 mg/ml of” for “14.7 microM”, “3” for “13 mM carnitine, 1”, “43” for “16”

| Liver S-9 stability factor [2] | SMILES | Palmitoyl CoA oxidation activity, % of DMSO control ([1]; 100 μM compound) [%] | Palmitoyl carnitine oxidation remaining, % activity of DMSO control ([3]; 100 μM compound) [%] | further results |
| --- | --- | --- | --- | --- |
|  | COc1ccccc1OCC(O)CN(C)CCN(C)CC(=O)Nc1c(C)cccc1C (stereo not shown) [Compound 9] | 8.83 |  |  |
| 1.58 | Cc1cccc(C)c1NC(=O)CN(C)CCCN(C)CC(O)Cc1ccc2c(c1)OCO2 (stereo not shown) [Compound 22] | 12.5 | 97 |  |
| 0.08 | Cc1cccc(C)c1NC(=O)CN(C)CCCN(C)CC(O)Cc1ccccc1 (stereo not shown) [Compound 21] |  | 4.9 |  |
|  | CCN(CCN(CC)CC(O)c1ccccc1F)CC(=O)Nc1c(C)cccc1C (stereo not shown) [Compound 18] | 54.8 |  |  |
|  | Cc1cccc(C)c1NC(=O)CN(C)CCN(C)CC(O)COc1c(Cl)cccc1Cl (stereo not shown) [Compound 10] | 23 |  |  |
|  | CCN(CCN(CC)CC(O)COc1c(Cl)cccc1Cl)CC(=O)Nc1c(C)cccc1C (stereo not shown) [Compound 14] | 97.1 |  |  |
| 0.01 | CCN(CCN(CC)CC(O)c1ccccc1Cl)CC(=O)Nc1c(C)cccc1C (stereo not shown) [Compound 17] | 34.3 |  |  |
|  | CCN(CCN(CC)CC(O)Cc1ccc2c(c1)OCO2)CC(=O)Nc1c(C)cccc1C (stereo not shown) [Compound 19] | 26 | 97.1 |  |
| 1.59 | Cc1cccc(C)c1NC(=O)CN(C)CCN(C)CC(O)Cc1ccc2c(c1)OCO2 (stereo not shown) [Compound 20] |  | 98.7 |  |
|  | COc1ccccc1CC(O)CN(C)CCN(C)CC(=O)Nc1c(C)cccc1C (stereo not shown) [Compound 11] | 8 |  |  |
|  | CCN(CCN(CC)CC(O)COc1ccccc1OC)CC(=O)Nc1c(C)cccc1C (stereo not shown) [Compound 13] | 67.8 |  |  |
| 1.0 | COc1ccccc1OCC(O)CN1CCN(CC(=O)Nc2c(C)cccc2C)CC1 (racemic) [Ranolazine, (±)-N-(2,6-dimethylphenyl)-4-[2-hydroxy-3-(2-methoxyphenoxy)-propyl]-1-piperazineacetamide, reference compound] | 75 | 63 | percentage of parent drug remaining at the 30 minute time point ([2]; human liver S-9, 30 minutes at 37 C, 10 μM, average of five experiments): 57%; Palmitoyl carnitine oxidation remaining, % activity of DMSO control ([3]; 30 μM compound): 98%; Palmitoyl CoA oxidation activity, % of DMSO control ([1]; 30 μM compound): 90% |
| 1.51 | Cc1cccc(C)c1NC(=O)CN(C)CCN(C)CC(O)COc1ccc2c(c1)OCO2 (stereo not shown) [Compound 7, 2-({2-[(3-(2H-benzo[d]1,3-dioxolen-5-yloxy)-2-hydroxypropyl)methylamino]ethyl}methylamino)-N-(2,6-dimethylphenyl)acetamide] |  |  |  |
|  | Cc1cccc(C)c1NC(=O)CN(C)CCN(C)CC(O)Cc1cccc2ccccc12 (stereo not shown) [Compound 12] | 26.5 |  |  |

— patent publication US6638970B2, “Substituted alkylene diamine compounds” (CV Therapeutics, Inc., priority 2000, dated 2003)
